In PubChem BioAssay (NCI):
Values joined by “and” are separate entries in the source; they are usually repeats but may differ in a detail not shown here. Equal values may be shown once.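 Interpolation was linear, between the two tested concentrations surrounding the appropriate level; five concentrations were tested over 48 hours in 96-well plates. GI50 is the concentration that inhibits growth by half. Definition used: TGI = concentration required for complete inhibition of growth.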

Legend:
Assay in all cases: NCI-60 cell line screen, 48 h
[1] = system: NCI/ADR-RES ovarian
[2] = system: UACC-62 melanoma
[3] = system: ACHN renal
[4] = system: MCF7 breast
[5] = system: KM12 colon
[6] = system: SNB-75 CNS
[7] = system: MDA-MB-435
[8] = system: CAKI-1 renal
[9] = system: NCI-H460 lung
[10] = system: OVCAR-4 ovarian

Structure (SMILES)	TGI [1] [µM]	TGI [2] [µM]	TGI [3] [µM]	TGI [4] [µM]	TGI [5] [µM]	TGI [6]	TGI [7] [µM]	TGI [8] [µM]	TGI [9] [µM]	TGI [10] [µM]	GI50 [3]	GI50 [6]	GI50 [1] [µM]	GI50 [5] [µM]	GI50 [7] [µM]	GI50 [8] [µM]	GI50 [10] [µM]
COC(=O)c1ccc(C)cc1C1CN=NC12Cc1cccc(C)c1C2=O (configuration not stated)	67.1	53.1	> 100	> 100	72.5	> 100 µM	37.9	> 100	> 100	> 100	–	–	–	–	–	–	–
COc1ccc(Cn2c(=O)c(OS(=O)(=O)C(F)(F)F)c(C)c3cc4ccccc4cc32)cc1	> 100	> 100	> 100	> 100	> 100	> 100 µM	> 100	> 100	> 100	> 100	–	–	–	–	–	–	–
CCOC(=O)/C=C(/C(=O)OCC)n1cc(C)c(=O)n(Cc2cn(CCCCOC(C)=O)nn2)c1=O	65.6	30.5	16.7	42.2	29.5	32.6 µM	28.4	6.46	34.1	39.5	–	–	–	–	–	–	–
Cc1c2cc[n+](C)cc2c(C)c2c1[nH]c1ccc(OCC(F)(F)F)cc12	–	> 100	> 100	–	> 44.8	2.62 µM and 0.833 µM	–	> 64.7	–	> 100	12 µM and > 100 µM	0.837 µM and 0.271 µM	–	–	–	–	–
O=C1CC(c2cccc([N+](=O)[O-])c2)C2(C(=O)NC(=S)NC2=O)C(c2cccc([N+](=O)[O-])c2)C1 (configuration not stated)	> 100	60.6	> 100	50.9	> 100	> 100 µM	66.2	64.3	> 100	> 100	–	–	–	–	–	–	–
Cc1cc2ccccc2oc(=O)/c1=N\Nc1ccccc1	> 100	> 100	> 100	> 100	> 100	63.8 µM	> 100	> 100	> 100	> 100	–	–	–	–	–	–	–
Clc1cc(Cl)nc(Nc2ccc3c(c2)CCC3)n1	> 100	> 100	> 100	70.8	59.1	–	> 100	75.7	> 100	> 100	–	–	–	–	–	–	–
C/C(=N\Nc1nc2cc(F)ccc2s1)c1ccccn1	0.12	1.46	1.35	> 100	> 23.4	4.68 µM	> 100	5.67	> 100	3.32	–	–	–	–	–	–	–
C[C@]12CC[C@H]3[C@@H](CC=C4C[C@@H](O)CC[C@@]43C)[C@@H]1C/C(=C\c1ccc([N+](=O)[O-])cc1)[C@@H]2O	48.4	34.1	24.4	19.6	> 100	32.1 µM	> 100	36.8	72.9	3.7	–	–	–	–	–	–	–
O=C1OC2(CCCCC2)C(Oc2ccc(Cl)cc2)=C1F	–	> 100	> 100	> 100	> 100	> 100 µM	> 100	> 100	> 100	–	–	–	–	–	–	–	–
CC(C)=CCNc1ncnc2c1ncn2CCC(=O)O	> 100	> 100	> 100	> 100	> 100	> 100 µM	> 100	–	> 100	> 100	–	–	–	–	–	–	–
Cc1cc(C)c(S(=O)(=O)N(CCCCCN)OCCCN)c(C)c1	34.3	33.4	33.6	33.5	34.8	30.9 µM	34.9	31.2	31.2	37.8	–	–	–	–	–	–	–
CCOC(=O)c1cnc2n(c1=O)[C@H]1CCCC[C@@H]1N2	> 100	> 100	> 100	> 100	> 100	> 100 µM	> 100	> 100	> 100	> 100	–	–	–	–	–	–	–
CC(C)(C)OC(=O)NCC(c1c[nH]c2ccccc12)c1c[nH]c2ccccc12	51.3	> 100	> 100	> 100	28.6	28.1 µM	31.7	29.1	30.1	26.5	–	–	–	–	–	–	–
C=C1c2nc3ccccc3n2C=C(c2ccccc2)N1c1ccc(C)cc1	> 100	> 100	> 100	> 100	56.1	> 100 µM	> 100	> 100	> 100	> 100	–	–	–	–	–	–	–
C(=Nc1ccc(-c2nc3ccccc3s2)cc1)c1cccs1	> 100	> 100	> 100	–	> 100	> 100 µM	> 100	> 100	> 100	> 100	–	–	–	–	–	–	–
CC(C)(C)N=C1C(=O)C2(C)CCC1C2(C)C (configuration not stated)	> 100	34.8	> 100	> 100	> 100	–	> 100	> 100	> 100	> 100	–	–	–	–	–	–	–
O=Cc1c2c(cc3c1CC1(C3)Cc3cc4c(c(C=O)c3C1)CCC4)CCC2	> 100	62.3	43.6	> 100	–	–	> 100	–	–	72.1	–	–	–	–	–	–	–
C[C@H](CCc1nc(C#N)c(N)o1)[C@H]1CC[C@H]2[C@@H]3CCC4C[C@@H](O)CC[C@]4(C)[C@H]3C[C@@H](O)[C@]12C (some centres not stated)	25	25.3	28.6	35.7	28.2	25 µM	30	28.4	31.3	4.92	–	–	–	–	–	–	–
Cc1c2oc(=O)c(C#N)cc2c2ccccn12	> 100	> 100	> 100	> 100	> 100	> 100 µM	> 100	> 100	> 100	> 100	–	–	–	–	–	–	–
COc1cccc(C2C(C#N)=C(N)Oc3cc(OCCCCCC[P+](c4ccccc4)(c4ccccc4)c4ccccc4)ccc32)c1 (configuration not stated)	78.3	–	4.92	–	1.58	2.11 µM	1.31	3.48	–	1.51	2.04 µM	0.21 µM	11.9	0.433	0.357	1.68	0.384
